Measurements from patent US11667602B2, “Compounds and their use” (AstraZeneca AB, priority 2020, dated 2023).
Converted amounts (≈) assume the structure as drawn. Where two headings read alike, the source gives them in different places.

Legend:
[1] = Human Liver Microsomal Stability (Test C); type: in vitro ADME; conditions: for microsomal CLint: human, liver microsomes; for Test C Human Liver Microsomal Stability Clint: human liver microsomes
Summary of the method: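 Human liver microsome incubation per the Wernevik et al. integrated DMPK panel protocol. Intrinsic clearance reported as CLint in μl/min/mg protein, averaged arithmetically over repeat runs.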

[2] = Rat Hepatocyte Stability (Test E); type: in vitro ADME; conditions: geometric mean if run multiple times; for hepatocyte CLint: rat, hepatocytes; for Test E Rat Hepatocyte Stability Clint: rat hepatocytes
Summary of the method: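 Run per the published AstraZeneca-type rat hepatocyte stability protocol (Wernevik et al. panel). Values are mean intrinsic clearance, Clint in μl/min/10^6 cells; geometric mean used for repeated runs.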

[3] = Human Hepatocyte Stability (Test D); type: in vitro ADME; conditions: geometric mean if run multiple times; for hepatocyte CLint at 1 µM: human, cryopreserved pooled human hepatocytes (LiverPool 10-Donor); for Test D Human Hepatocyte Stability Clint: human hepatocytes
Summary of the method: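 Pooled 10-donor cryopreserved human hepatocytes (≥80% viable) in L-15 medium at 0.25×10^6 cells per 0.25 mL well. Compound added from 100 μM acetonitrile solution; incubated at 37 °C with shaking, acetonitrile-quenched, LC-MS analysed. Clint (μL/min/10^6 cells) from ln % parent vs time slope; geometric mean of repeat runs.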

human RXFP1 = target: T1, human RXFP1 (Homo sapiens, UniProt Q9HBX9); assay: RXFP1 Hu cAMP (Test A); type: cell-based; set-up: expressed in transfected cells; host or cells: Jump-In T-REx CHO-K1 cells (ThermoFisher), induced with 10 ng/ml doxycycline for 24 h
T1 sequence (Q9HBX9 1-757): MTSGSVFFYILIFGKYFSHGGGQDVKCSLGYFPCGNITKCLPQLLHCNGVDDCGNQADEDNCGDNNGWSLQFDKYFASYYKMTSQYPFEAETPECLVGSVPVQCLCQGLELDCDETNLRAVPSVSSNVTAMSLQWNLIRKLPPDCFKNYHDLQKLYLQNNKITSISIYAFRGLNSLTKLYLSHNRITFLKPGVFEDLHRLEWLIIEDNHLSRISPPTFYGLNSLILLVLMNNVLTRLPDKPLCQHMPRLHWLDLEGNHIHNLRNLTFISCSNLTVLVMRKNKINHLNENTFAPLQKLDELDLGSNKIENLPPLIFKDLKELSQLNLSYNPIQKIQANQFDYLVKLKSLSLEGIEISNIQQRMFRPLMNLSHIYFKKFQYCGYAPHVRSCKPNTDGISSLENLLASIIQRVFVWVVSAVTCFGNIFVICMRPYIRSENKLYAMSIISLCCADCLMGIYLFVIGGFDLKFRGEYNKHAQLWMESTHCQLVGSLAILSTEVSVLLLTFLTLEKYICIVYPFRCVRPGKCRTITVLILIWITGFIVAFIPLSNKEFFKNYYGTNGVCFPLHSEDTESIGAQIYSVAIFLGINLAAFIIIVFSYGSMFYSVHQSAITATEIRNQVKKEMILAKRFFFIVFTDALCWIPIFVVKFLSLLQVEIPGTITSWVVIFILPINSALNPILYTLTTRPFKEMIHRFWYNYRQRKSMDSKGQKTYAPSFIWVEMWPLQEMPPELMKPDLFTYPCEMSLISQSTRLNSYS
Summary of the method: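 CHO-K1 (Jump-In T-REx), RXFP1 induced w/ 10 ng/ml doxycycline 24 h, cryopreserved. 0.5 mM IBMX final. cAMP by HTRF, 2 h RT, std curve.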

[4] = Human Plasma Protein Binding (Test B); type: in vitro ADME; conditions: fraction unbound (fu)
Summary of the method: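 Human plasma protein binding run per the published Wernevik et al. (2020) integrated DMPK panel protocol. Values are fraction unbound (fu, % free); repeat runs averaged arithmetically.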

Solubility (Test F) = type: physicochemical; conditions: arithmetic mean if run multiple times
Procedure: The assay was conducted according to the Solubility Assay described in pages 164-167 of Wernevik, J. et al., “A Fully Integrated Assay Panel for Early Drug Metabolism and Pharmacokinetics Profiling”, Assay and Drug Development Technologies, 2020, 18(4), 157-179. Data are reported in Table 36 as solubility ([…]. Where the assay was run multiple times for the same compound, the arithmetic mean is reported.

[5] = RXFP1 Hu cAMP, read-out: Test A EC50

microsomal CLint [1] | hepatocyte CLint [2] | hepatocyte CLint at 1 µM [3] | Test A Sinf (human RXFP1; RXFP1 Hu cAMP) | EC50 (human RXFP1; [5]) | Test B Human Plasma Protein Binding (% free) [4] | solubility (Solubility (Test F)) | Structure (SMILES) | EC50 (human RXFP1; Test A EC50, RXFP1 Hu cAMP) | Test C Human Liver Microsomal Stability Clint [1] | Test E Rat Hepatocyte Stability Clint [2] | Test D Human Hepatocyte Stability Clint [3]
56 µL/min/mg | 78 µL/min/1e6 cells | 18 µL/min/1e6 cells | 112% | 0.011 µM | 1.5 % free | > 1000 µM | COC[C@]1(C(=O)O)CC[C@@H](Oc2cc(C(=O)N[C@@H]3[C@H]4CC[C@H](C4)[C@@H]3C(=O)Nc3cccc(S(=O)(=O)C(F)(F)F)c3)c(OC)cc2F)CC1 [Example 482] | – | – | – | –
47 µL/min/mg | 16 µL/min/1e6 cells | 16 µL/min/1e6 cells | 91% | 0.64 µM | 5 % free | 21 µM (≈ 13.9 µg/mL) | COc1cc(F)c(O[C@H]2CC[C@@](C)(C(=O)O)CC2)cc1C(=O)N[C@@H]1[C@H](O)CC[C@@H]1C(=O)Nc1cccc(S(=O)(=O)C(F)(F)F)c1 (racemic) [Example 396, (1R,4s)-4-(2-Fluoro-5-(((1SR,2RS,5SR)-2-hydroxy-5-((3-((trifluoromethyl)sulfonyl)phenyl)carbamoyl)cyclopentyl)carbamoyl)-4-methoxyphenoxy)-1-methylcyclohexane-1-carboxylic acid] | – | – | – | –
14 µL/min/mg | 9.6 µL/min/1e6 cells | 11 µL/min/1e6 cells | 119% | 0.46 µM | 0.67 % free | > 1000 µM | COc1cc(F)c(-c2ccc(CC(=O)O)cc2)cc1C(=O)N[C@@H]1CCC[C@@H]1C(=O)Nc1cccc(S(=O)(=O)C(F)(F)F)c1 [Example 320] | – | – | – | –
65 µL/min/mg | 4.6 µL/min/1e6 cells | 8 µL/min/1e6 cells | 114% | 0.11 µM | <0.35 % free | 8 µM (≈ 5.58 µg/mL) | COc1cc(F)c(-c2ccc(CCS(N)(=O)=O)cc2)cc1C(=O)N[C@H]1[C@H]2CC[C@H](C2)[C@H]1C(=O)Nc1cccc(S(=O)(=O)C(F)(F)F)c1 (single isomer, unassigned) [Example 326] | – | – | – | –
50 µL/min/mg | 19 µL/min/1e6 cells | 8 µL/min/1e6 cells | 106% | – | 4.1 % free | 780 µM (≈ 436 µg/mL) | CCOc1cc(F)c(O[C@H]2CC[C@@](C)(C(=O)O)CC2)cc1C(=O)N[C@@H]1[C@H]2CC[C@H](C2)[C@@H]1C(=O)NCC1(C)CCC1 [Example 385] | – | – | – | –
9.4 µL/min/mg | 13 µL/min/1e6 cells | 7.2 µL/min/1e6 cells | 101% | 0.25 µM | <0.31 % free | 400 µM (≈ 259 µg/mL) | COc1cc(F)c(Oc2ccc(C(=O)O)cc2)cc1C(=O)N[C@H]1[C@@H](C(=O)Nc2cccc(S(=O)(=O)C(F)(F)F)c2)[C@@H]2C=C[C@H]1C2 (racemic) [Example 484] | – | – | – | –
45 µL/min/mg | 15 µL/min/1e6 cells | 13 µL/min/1e6 cells | 104% | 0.64 µM | 5 % free | 980 µM (≈ 651 µg/mL) | COc1cc(F)c(-c2ccc(CCC(=O)O)nn2)cc1C(=O)N[C@@H]1[C@H]2CC[C@H](C2)[C@@H]1C(=O)Nc1cccc(S(=O)(=O)C(F)(F)F)c1 [Example 245] | – | – | – | –
6.2 µL/min/mg | 11 µL/min/1e6 cells | < 1 µL/min/1e6 cells | 113% | 0.14 µM | 20 % free | 920 µM (≈ 484 µg/mL) | COc1cc(C#N)c(O[C@H]2CC[C@@](C)(C(=O)O)CC2)cc1C(=O)N[C@@H]1[C@H]2CC[C@H](C2)[C@@H]1C(=O)NC(C)(C)C [Example 99] | – | – | – | –
24 µL/min/mg | 14 µL/min/1e6 cells | 4.6 µL/min/1e6 cells | 110% | 0.077 µM | 1.2 % free | 18 µM (≈ 12.7 µg/mL) | COc1cc(F)c(-c2ccc(C[C@H](C(=O)O)N(C)C)cc2)cc1C(=O)N[C@@H]1[C@H]2CC[C@H](C2)[C@@H]1C(=O)Nc1cccc(S(=O)(=O)C(F)(F)F)c1 [Example 292, (R)-2-(Dimethylamino)-3-(2′-fluoro-4′-methoxy-5′-(((1S,2R,3S,4R)-3-((3-((trifluoromethyl)sulfonyl)phenyl)carbamoyl)bicyclo[2.2.1]heptan-2-yl)carbamoyl)-[1,1′-biphenyl]-4-yl)propanoic acid] | – | – | – | –
> 300 µL/min/mg | 130 µL/min/1e6 cells | 78 µL/min/1e6 cells | 113% | – | 0.19 % free | 5 µM (≈ 2.97 µg/mL) | COc1cc(F)c(Cc2cn[nH]c2)cc1C(=O)N[C@@H]1[C@H]2CC[C@H](C2)[C@@H]1C(=O)Nc1cccc(S(=O)(=O)C(F)(F)F)c1 [Example 219, (1R,2S,3R,4S)-3-(5-((1H-Pyrazol-4-yl)methyl)-4-fluoro-2-methoxybenzamido)-N-(3-((trifluoromethyl)sulfonyl)phenyl)bicyclo[2.2.1]heptane-2-carboxamide] | – | – | – | –
< 3 µL/min/mg | 19 µL/min/1e6 cells | 4.4 µL/min/1e6 cells | 108% | 0.32 µM | 3.3 % free | > 1000 µM | COc1cc(F)c(O[C@H]2CC[C@@H](C(=O)O)CC2)cc1C(=O)N[C@H]1[C@@H](C(=O)Nc2ccc(OC)c(S(=O)(=O)C(F)(F)F)c2)[C@@H]2C=C[C@H]1C2 [Example 497, (1S,4s)-4-(2-Fluoro-4-methoxy-5-(((1R,2R,3S,4S)-3-((4-methoxy-3-((trifluoromethyl)sulfonyl)phenyl)carbamoyl)bicyclo[2.2.1]hept-5-en-2-yl)carbamoyl)phenoxy)cyclohexane-1-carboxylic acid] | – | – | – | –

Structure (SMILES) | microsomal CLint [1] | hepatocyte CLint [2] | hepatocyte CLint at 1 µM [3] | Test A Sinf (human RXFP1; RXFP1 Hu cAMP) | EC50 (human RXFP1; [5]) | Test B Human Plasma Protein Binding (% free) [4] | solubility (Solubility (Test F)) | EC50 (human RXFP1; Test A EC50, RXFP1 Hu cAMP) | Test C Human Liver Microsomal Stability Clint [1] | Test E Rat Hepatocyte Stability Clint [2] | Test D Human Hepatocyte Stability Clint [3]
COc1ccc(O[C@H]2CC[C@@](C)(C(=O)O)CC2)cc1C(=O)N[C@@H]1[C@H]2CC[C@H](C2)[C@@H]1C(=O)NCC1(C)CCC1 [Example 381] | 36 µL/min/mg | 21 µL/min/1e6 cells | 6.1 µL/min/1e6 cells | – | – | 3.8 % free | 1000 µM (≈ 527 µg/mL) | 0.11 µM | – | – | –
COc1cc(F)c(O[C@H]2CC[C@@](C)(C(N)=O)CC2)cc1C(=O)N[C@@H]1[C@H]2CC[C@H](C2)[C@@H]1C(=O)NCC1(F)CCOCC1 [Example 147, (1R,2S,3R,4S)-3-(5-(((1s,4S)-4-Carbamoyl-4-methylcyclohexyl)oxy)-4-fluoro-2-methoxybenzamido)-N-((4-fluorotetrahydro-2H-pyran-4-yl)methyl)bicyclo-[2.2.1]heptane-2-carboxamide] | – | – | – | 111% | > 4.2 µM | 36 % free | 1000 µM (≈ 578 µg/mL) | – | 88 µL/min/mg | 67 μL/min/10^6 cells | 6.1 μL/min/10^6 cells
COc1cc(F)c(O[C@H]2CC[C@@](C)(C(=O)O)CC2)cc1C(=O)N[C@@H]1COC[C@@H]1C(=O)Nc1cccc(S(=O)(=O)C(F)(F)F)c1 (relative stereo) [Example 561, (1R,4s)-4-(2-Fluoro-4-methoxy-5-(((3S*,4R*)-4-((3-((trifluoromethyl)sulfonyl)phenyl)carbamoyl)tetrahydrofuran-3-yl)carbamoyl)phenoxy)-1-methylcyclohexane-1-carboxylic acid] | – | – | – | 104% | 0.13 µM | 3.7 % free | 930 µM (≈ 601 µg/mL) | – | 17 µL/min/mg | 55 μL/min/10^6 cells | 6.3 μL/min/10^6 cells
